{"source": "patent US20230104936A1", "about": "“TRPML MODULATORS” (Casma Therapeutics, Inc., priority 2019, published 2023)", "data": [{"test_system": "TFEB", "experiment": "TFEB nuclear translocation assay, HeLa wt cells", "format": "cell-based", "settings": "Homo sapiens, HeLa, 2 h, 2 hrs compound treatment, Table 1 does not say HeLa wt or TRPML1 KO", "how_it_was_run": "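AC50 derived from the ratio of nuclear to perinuclear ring (−5 μm) anti-TFEB immunofluorescence, imaged at ×20 over four fields per well. HeLa wt or TRPML1 KO cells were exposed to compounds for 2 hrs at 37° C, then PFA-fixed and counterstained with Hoechst.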", "units": {"AC50": "nM"}, "values": [{"smiles": "CN(CC(C)(C)O)S(=O)(=O)c1ccc(S(=O)(=O)Nc2ccccc2N2CCC(c3c(F)cccc3F)CC2)cc1", "note": "[Compound A-224, N4-{2-[4-(2,6-difluorophenyl)piperidin-1-yl]phenyl}-N1-(2-hydroxy-2-methylpropyl)-N1-methylbenzene-1,4-disulfonamide]", "AC50": "≥ 10000"}, {"smiles": "CN(C)S(=O)(=O)c1ccc(S(=O)(=O)Nc2ccccc2N2CCN(C(=O)C(C)(C)C)CC2)cc1", "note": "[Compound A-225, N4-{2-[4-(2,2-dimethylpropanoyl)piperazin-1-yl]phenyl}-N1,N1-dimethylbenzene-1,4-disulfonamide]", "AC50": "2010 to 8000"}, {"smiles": "CN(C)S(=N)(=O)c1ccc(S(=O)(=O)Nc2ccc(F)cc2N2CCC(c3c(F)cccc3F)CC2)cc1", "note": "(centres unmarked) [Compound A-226, 4-({2-[4-(2,6-difluorophenyl)piperidin-1-yl]-4-fluorophenyl}sulfamoyl)-N,N-dimethylbenzene-1-sulfonoimidamide]", "AC50": "≤ 2000"}, {"smiles": "C=CP(=O)(C=C)c1ccccc1NS(=O)(=O)c1ccc(S(=O)(=O)N(C)C)cc1", "note": "[Compound A-227, N1-(2-(divinylphosphoryl)phenyl)-N4,N4-dimethylbenzene-1,4-disulfonamide]", "AC50": "≥ 10000"}, {"smiles": "CN(C)S(=N)(=O)c1ccc(S(=O)(=O)Nc2cc(F)ccc2N2CCC(c3c(F)cccc3F)CC2)cc1", "note": "(centres unmarked) [Compound A-228, 4-({2-[4-(2,6-difluorophenyl)piperidin-1-yl]-5-fluorophenyl}sulfamoyl)-N,N-dimethylbenzene-1-sulfonoimidamide]", "AC50": "≤ 2000"}, {"smiles": "CN(C)S(=O)(=O)c1ccc(S(=O)(=O)Cc2ccccc2N2CCC(c3c(F)cccc3F)CC2)cc1", "note": "[Compound A-229, 4-((2-(4-(2,6-difluorophenyl)piperidin-1-yl)benzyl)sulfonyl)-N,N-dimethylbenzenesulfonamide]", "AC50": "≤ 2000"}, {"smiles": "CN(C)CC1(c2ccc(F)cc2)CCN(c2ccccc2NS(=O)(=O)c2ccc(S(=O)(=O)N(C)C)cc2)CC1", "note": "[Compound A-231, N4-(2-{4-[(dimethylamino)methyl]-4-(4-fluorophenyl)piperidin-1-yl}phenyl)-N1,N1-dimethylbenzene-1,4-disulfonamide]", "AC50": "≤ 2000"}, {"smiles": "CN(C)S(=O)(=O)c1ccc(S(=O)(=O)Nc2ccccc2N2CCP(=O)(c3ccc(F)cc3)CC2)cc1", "note": "[Compound A-232, N4-{2-[4-(4-fluorophenyl)-4-oxo-1,4λ^5-azaphosphinan-1-yl]phenyl}-N1,N1-dimethylbenzene-1,4-disulfonamide]", "AC50": "≥ 10000"}, {"smiles": "CN(C)S(=O)(=O)c1ccc(NC(c2ccccc2N2CCC(c3ccc(Cl)cc3F)CC2)C(F)(F)F)cc1", "note": "(centres unmarked) [Compound A-241, 4-((1-(2-(4-(4-chloro-2-fluorophenyl)piperidin-1-yl)phenyl)-2,2,2-trifluoroethyl)amino)-N,N-dimethylbenzenesulfonamide]", "AC50": "≥ 10000"}, {"smiles": "CN1CC2(CCN(c3ccccc3N(C)S(=O)(=O)c3ccc(S(=O)(=O)N(C)C)cc3)CC2)c2ccc(F)cc21", "note": "[Compound A-243, N1-(2-{6-fluoro-1-methyl-1,2-dihydrospiro[indole-3,4′-piperidin]-1′-yl}phenyl)-N1,N4,N4-trimethylbenzene-1,4-disulfonamide]", "AC50": "≤ 2000"}, {"smiles": "CN1CCC2(CCN(c3ccccc3NS(=O)(=O)c3ccc(S(=O)(=O)N(C)C)cc3)CC2)C1=O", "note": "[Compound A-244, N1,N1-dimethyl-N4-(2-{2-methyl-1-oxo-2,8-diazaspiro[4.5]decan-8-yl}phenyl)benzene-1,4-disulfonamide]", "AC50": "≥ 10000"}, {"smiles": "Cc1ccc(S(=O)(=O)Nc2ccccc2N2CCC3(CC2)CN(C)c2cc(F)ccc23)cc1", "note": "[Compound A-245, N-(2-{6-fluoro-1-methyl-1,2-dihydrospiro[indole-3,4′-piperidin]-1′-yl}phenyl)-4-methylbenzene-1-sulfonamide]", "AC50": "≤ 2000"}, {"smiles": "CN1CC2(CCN(c3ccccc3NS(=O)(=O)c3ccc(S(=O)(=O)C(F)F)cc3)CC2)c2ccc(F)cc21", "note": "[Compound A-246, 4-difluoromethanesulfonyl-N-(2-{6-fluoro-1-methyl-1,2-dihydrospiro[indole-3,4′-piperidin]-1′-yl}phenyl)benzene-1-sulfonamide]", "AC50": "≤ 2000"}, {"smiles": "CN1CC2(CCN(c3c(NS(=O)(=O)c4ccc(S(=O)(=O)N(C)C)cc4)ccc4c3cnn4C)CC2)c2ccc(F)cc21", "note": "[Compound A-247, N4-(4-{6-fluoro-1-methyl-1,2-dihydrospiro[indole-3,4′-piperidin]-1′-yl}-1-methyl-1H-indazol-5-yl)-N1,N1-dimethylbenzene-1,4-disulfonamide]", "AC50": "≤ 2000"}, {"smiles": "CN1CC2(CCN(c3ccccc3NS(=O)(=O)c3ccc(S(C)(=O)=O)cc3)CC2)c2ccc(F)cc21", "note": "[Compound A-251, N-(2-{6-fluoro-1-methyl-1,2-dihydrospiro[indole-3,4′-piperidin]-1′-yl}phenyl)-4-methanesulfonylbenzene-1-sulfonamide]", "AC50": "≤ 2000"}, {"smiles": "COc1ccc(S(=O)(=O)Nc2ccccc2N2CCC3(CC2)CN(C)c2cc(F)ccc23)cc1", "note": "[Compound A-252, N-(2-{6-fluoro-1-methyl-1,2-dihydrospiro[indole-3,4′-piperidin]-1′-yl}phenyl)-4-methoxybenzene-1-sulfonamide]", "AC50": "≤ 2000"}, {"smiles": "CN(C)S(=O)(=O)c1ccc(S(=O)(=O)Nc2ccccc2N2CCC3(CC2)COc2cc(F)ccc23)cc1", "note": "[Compound A-253, N4-(2-{6-fluoro-2H-spiro[1-benzofuran-3,4′-piperidin]-1′-yl}phenyl)-N1,N1-dimethylbenzene-1,4-disulfonamide]", "AC50": "≤ 2000"}, {"smiles": "CC(c1ccccc1N1CCC(c2c(F)cccc2F)CC1)S(=O)(=O)c1ccc(S(=O)(=O)N(C)C)cc1", "note": "(centres unmarked) [Compound A-254, 4-((1-(2-(4-(2,6-difluorophenyl)piperidin-1-yl)phenyl)ethyl)sulfonyl)-N,N-dimethylbenzenesulfonamide]", "AC50": "≤ 2000"}, {"smiles": "CN1CC2(CCN(c3ccccc3NS(=O)(=O)c3ccc(S(=N)(=O)N(C)C)cc3)CC2)c2ccc(F)cc21", "note": "(centres unmarked) [Compound A-257, 4-[(2-{6-fluoro-1-methyl-1,2-dihydrospiro[indole-3,4′-piperidin]-1′-yl}phenyl)sulfamoyl]-N,N-dimethylbenzene-1-sulfonoimidamide]", "AC50": "≤ 2000"}, {"smiles": "CN(C)S(=O)(=O)c1ccc(S(=O)(=O)Nc2ccccc2N2CCC3(CC2)OCc2cc(F)ccc23)cc1", "note": "[Compound A-258, N4-(2-{5-fluoro-3H-spiro[2-benzofuran-1,4′-piperidin]-1′-yl}phenyl)-N1,N1-dimethylbenzene-1,4-disulfonamide]", "AC50": "≤ 2000"}, {"smiles": "CN(C)S(=O)(=O)c1ccc(S(=O)(=O)Nc2ccccc2N2CCC(c3ccccc3C(=O)O)CC2)cc1", "note": "[Compound A-259, 2-(1-{2-[4-(dimethylsulfamoyl)benzenesulfonamido]phenyl}piperidin-4-yl)benzoic acid]", "AC50": "≥ 10000"}, {"smiles": "CN(C)S(=O)(=O)c1ccc(S(=O)(=O)Nc2ccccc2N2CCC(c3cccc(C(=O)O)c3)CC2)cc1", "note": "[Compound A-266, 3-(1-{2-[4-(dimethylsulfamoyl)benzenesulfonamido]phenyl}piperidin-4-yl)benzoic acid]", "AC50": "≥ 10000"}, {"smiles": "CN(C)S(=O)(=O)c1ccc(S(=O)(=O)Nc2ccccc2N2CCC(c3ccc(C(=O)O)cc3)CC2)cc1", "note": "[Compound A-267, 4-(1-{2-[4-(dimethylsulfamoyl)benzenesulfonamido]phenyl}piperidin-4-yl)benzoic acid]", "AC50": "≥ 10000"}, {"smiles": "CN1CC2(CCN(c3ccccc3NS(=O)(=O)c3ccc(S(=O)(=O)N(C)C)cc3)CC2)c2ncc(Cl)cc21", "note": "[Compound A-268, N4-(2-{6′-chloro-1′-methyl-1′,2′-dihydrospiro[piperidine-4,3′-pyrrolo[3,2-b]pyridin]-1-yl}phenyl)-N1,N1-dimethylbenzene-1,4-disulfonamide]", "AC50": "≤ 2000"}, {"smiles": "CN1CC2(CCN(c3ccccc3NS(=O)(=O)c3ccc(S(=O)(=O)N(C)C)cc3)CC2)C2NCCCC21", "note": "(centres unmarked) [Compound A-269, N1,N1-dimethyl-N4-(2-{1′-methyl-octahydrospiro[piperidine-4,3′-pyrrolo[3,2-b]pyridin]-1-yl}phenyl)benzene-1,4-disulfonamide]", "AC50": "≥ 10000"}, {"smiles": "CN1CC2(CCN(c3ccccc3NS(=O)(=O)c3ccc(S(=O)(=O)N(C)C)cc3)CC2)c2ncccc21", "note": "[Compound A-271, N1,N1-dimethyl-N4-(2-{1′-methyl-1′,2′-dihydrospiro[piperidine-4,3′-pyrrolo(3,2-b]pyridin]-1-yl}phenyl)benzene-1,4-disulfonamide]", "AC50": "≤ 2000"}, {"smiles": "CN(C)S(=O)(=O)c1ccc(S(=O)(=O)Nc2ccccc2N2CCC(c3cccc(-c4nn[nH]n4)c3)CC2)cc1", "note": "[Compound A-272, N1,N1-dimethyl-N4-(2-{4-[3-(2H-1,2,3,4-tetrazol-5-yl)phenyl]piperidin-1-yl}phenyl)benzene-1,4-disulfonamide]", "AC50": "≥ 10000"}, {"smiles": "CN(C)S(=O)(=O)c1ccc(S(=O)(=O)Nc2ccccc2N2CCC(c3ccc(-c4nnn[nH]4)cc3)CC2)cc1", "note": "[Compound A-273, N1,N1-dimethyl-N4-(2-{4-[4-(1H-1,2,3,4-tetrazol-5-yl)phenyl]piperidin-1-yl}phenyl)benzene-1,4-disulfonamide]", "AC50": "≥ 10000"}, {"smiles": "O=S(=O)(Nc1cccc(Cl)c1N1CCOCC1)c1ccc(S(=O)(=O)C(F)F)cc1", "note": "[Compound A-274, N-[3-chloro-2-(morpholin-4-yl)phenyl]-4-difluoromethanesulfonylbenzene-1-sulfonamide]", "AC50": "≥ 10000"}, {"smiles": "CS(=O)(=O)c1ccc(S(=O)(=O)Nc2cccc(Cl)c2N2CCOCC2)cc1", "note": "[Compound A-275, N-[3-chloro-2-(morpholin-4-yl)phenyl]-4-methanesulfonylbenzene-1-sulfonamide]", "AC50": "≥ 10000"}, {"smiles": "CC(C)(C)S(=O)(=O)c1ccc(S(=O)(=O)Nc2cc(Cl)ccc2N2CCOCC2)cc1", "note": "[Compound A-276, N-[5-chloro-2-(morpholin-4-yl)phenyl]-4-(2-methylpropane-2-sulfonyl)benzene-1-sulfonamide]", "AC50": "≥ 10000"}, {"smiles": "O=S(=O)(Nc1cc(Cl)ccc1N1CCOCC1)c1ccc(S(=O)(=O)C(F)F)cc1", "note": "[Compound A-277, N-[5-chloro-2-(morpholin-4-yl)phenyl]-4-difluoromethanesulfonylbenzene-1-sulfonamide]", "AC50": "≥ 10000"}]}]}
